US9101613B2, “Methods for treating neurological disease” (Neurim Pharmaceuticals (1991) Ltd., priority 2006, dated 2015)

Key:
[1] = test system: rat primary cortical neurons; assay: Neurite outgrowth in rat primary cortical neurons; assay type: cell-based
Procedure: The aim of this study was to assess the potential effect of N-[2-(5-methoxy-indol-3-yl)-ethyl]-comanilamide (100 nM) after 5 days of culture on neurite outgrowth in rat primary cortical neurons. The study used three separate cultures (n=6 wells per condition); the mean value of the 3 cultures (+/−sem) was calculated.
Rat cortical neurons were cultured as described by Singer et al., 1999. Briefly pregnant female rats of 15 days gestation are killed by cervical dislocation (Rats Wistar; Janvier) and the fetuses removed from the uterus. The cortex are removed and placed in ice-cold medium of Leibovitz (L15; Invitrogen) containing 1% of Penicillin-Streptomycin (PS; Invitrogen) and 1% of bovine serum albumin (BSA; Sigma). Cortex are dissociated by trypsinisation for 20 min at 37° C. (Trypsin EDTA 1×; Invitrogen) diluted in PBS without calcium and magnesium. The reaction is stopped by the addition of Dulbecco's modified Eagle's medium (DMEM; Invitrogen) containing DNAase I grade II (0.1 mg/ml; Roche Diagnostic) and 10% of fetal calf serum (FCS; Invitrogen). Cells are then mechanically dissociated by 3 passages through a 10 ml pipette. Cells are then centrifuged at 180×g for 10 min at 10° C. The supernatant is discarded and the cells of pellet are re-suspended in a defined culture medium consisting of Neurobasal (Invitrogen) supplemented with B27 (2%; Invitrogen), L-glutamine (0.2 mM; Invitrogen) and 1% of PS solution with 10 ng/ml of Brain-derived neurotrophic factor (BDNF).
For the neurite outgrowth assay, the cells are seed with test compound A (at 100 nM) and reference compound (BDNF at 10 ng/ml used as reference control) on defined medium (Neurobasal supplemented with 2% of B27, 0.2 mM of L-glutamine and 1% of PS).
The cultures were done (a) without BDNF in order to analyse the neurotrophic effect of compounds alone and (b) with low BDNF concentration (0.5 ng/ml) in order to analyse the synergic neurotrophic effect of N-[2-(5-methoxy-indol-3-yl)-ethyl]-comanilamide with the growth factor.
After 5 days of culture in presence of N-[2-(5-methoxy-indol-3-yl)-ethyl]-comanilamide and reference, cells were fixed by a cool solution of ethanol (95%) and acetic acid (5%) for 10 min. After permeabilization with 0.1% of saponin, cells were incubated with monoclonal antibody anti microtubule associated protein 2 (MAP-2; Sigma). This antibody stains specifically cell bodies and neurite of neurons. […] Nuclei of neurons were labeled by a fluorescent marker (Hoechst solution, SIGMA). Per well, 20 pictures were taken using InCell Analyzer™ 1000 (GE Healthcare) with 20× magnification. All images were done in the same conditions. Analysis of the neuritis networks and neuron were assessed using Developer software (GE Healthcare). […]

C57BL/6 mice [2] = assay: MPTP mouse model of Parkinson's disease, open field test; assay type: in vivo
Excerpt: (§1) Three-month-old male C57BL/6 mice were housed in groups of 5 animals per cage (50 cm×25 cm×20 cm) in a temperature- and humidity-controlled environment with ad libitum access to food and water. Animals were maintained on a 12 hr light/dark schedule, with lights on at 7 A.M.
Six groups of mice were used: (1) the control mice treated with saline and vehicle (n=10), (2) the N-[2-(5-methoxy-indol-3-yl)-ethyl]-comanilamide control mice treated with saline and N-[2-(5-methoxy-indol-3-yl)-ethyl]-comanilamide at 100 or 200 mg/kg (n=5, respectively), (3) the MPTP mice treated with MPTP and vehicle (n=10) and (4) the N-[2-(5-methoxy-indol-3-yl)-ethyl]-comanilamide-treated MPTP mice treated with MPTP and N-[2-(5-methoxy-indol-3-yl)-ethyl]-comanilamide at 100 or 200 mg/kg (n=10, respectively). Mice received daily (i.p.) injections of saline or MPTP (30 mg/kg/day) dissolved in physiological saline for five consecutive days to induce Parkinsonism. […]
For the open field test, the mice were taken from their home cages and transported to the locomotor test chambers (40×40×50 cm) for 5 min and their behaviors were recorded as digital videos. The digital videos then were analyzed off-line. The distance of each mouse traveling in the locomotor test chamber was analyzed by the commercial software.

C57BL/6 mice [3] = assay: MPTP mouse model of Parkinson's disease, striatal dopamine, DOPAC and HVA levels (HPLC); assay type: in vivo
Excerpt: as §1
Six groups of mice were used: (1) the control mice treated with saline and vehicle (n=10), (2) the N-[2-(5-methoxy-indol-3-yl)-ethyl]-comanilamide control mice treated with saline and N-[2-(5-methoxy-indol-3-yl)-ethyl]-comanilamide at 100 or 200 mg/kg (n=5, respectively), (3) the MPTP mice treated with MPTP and vehicle (n=10) and (4) the N-[2-(5-methoxy-indol-3-yl)-ethyl]-comanilamide-treated MPTP mice treated with MPTP and N-[2-(5-methoxy-indol-3-yl)-ethyl]-comanilamide at 100 or 200 mg/kg (n=10, respectively). Mice received daily (i.p.) injections of saline or MPTP (30 mg/kg/day) dissolved in physiological saline for five consecutive days to induce Parkinsonism. N-[2-(5-methoxy-indol-3-yl)-ethyl]-comanilamide or vehicle was administered (i.p.) once per day for 17 days, starting on the first day of MPTP injections. Open field test, pole test, forepaw stride length test and traction test were conducted on day 14, 15, 16 and 17 after the first injections of MPTP, respectively.
To measure striatal dopamine, DOPAC and HVA levels, mice were sacrificed at day 17 after the final injection of MPTP. The striata were dissected and stored at −70° C. before assays. Striatal dopamine levels were measured by high performance liquid chromatography (HPLC) with electrochemical detection.

[4] = saline mice, 100 or 200 mg/kg i.p., both p>0.05
[5] = MPTP mice, 100 or 200 mg/kg/day i.p.

COc1ccc2[nH]cc(CCNC(=O)c3cc(=O)cco3)c2c1 [N-[2-(5-methoxy-indol-3-yl)-ethyl]-comanilamide]
neurotrophic effect, compound alone ([1]; 100 nM alone in the culture medium, without BDNF): no neurotrophic effect | activity at 0.1 µM ([1]; Rattus norvegicus, Primary cortical neuron, 120 h, 100 nM + BDNF 0.5 ng/ml, 5 days of culture, read-out: neurite length, % of control): ~145% | traveled distance, open field test, vs MPTP mice (C57BL/6 mice [2]; MPTP mice, 100 or 200 mg/kg i.p. once per day, day 14, both p<0.01): showed more level of the traveled distance | traveled distance, open field test, vs control mice (C57BL/6 mice [2]; [4]): no significant difference in the traveled distance | striatal dopamine level vs MPTP mice (C57BL/6 mice [3]; MPTP mice, 100 or 200 mg/kg i.p., p<0.01 and p<0.05, respectively): showed more level of dopamine concentration | striatal DOPAC level (C57BL/6 mice [3]; [5]): ameliorated the MPTP-induced reductions | striatal HVA level (C57BL/6 mice [3]; [5]): ameliorated the MPTP-induced reductions | striatal dopamine level vs control mice (C57BL/6 mice [3]; [4]): no significant difference in dopamine level
